Experimental data: patent US20100048564A1, “FUSED BICYCLIC HETEROARYL DERIVATIVE” (DAIICHI SANKYO COMPANY, LIMITED, priority 2007, published 2010)
Where two headings read alike, the source gives them in different places.

What was measured:
Rat white adipocytes [1] = test: Adipocyte differentiation inhibition test (Test Example 3); format: cell-based; details: with Compound A 3.3 nM, 5 days, Oil Red O ABS550, N.D. denotes not calculable; for IC50: Adipocyte, 120 h
Experimental: (§1) Rat white adipocytes included in a white adipocyte culture kit purchased from Primary Cell Co., Ltd. were subjected to this test. A medium included in the white adipocyte culture kit purchased from Primary Cell Co., Ltd. was used as a growth medium or a differentiation-inducing medium.
(§2) The whole of the transportation medium was extracted immediately after the arrival of the purchased cells. The growth medium was added in an amount of 5 ml(/25 cm^2-flask), and the cells were cultured for one day. Thereafter, a cell suspension (83,000 cells/mL) was prepared using the growth medium. The cell suspension was dispensed to a 96-well type-I collagen-coated microplate (Becton, Dickinson and Company) at 5,000 to 6,000 cells/well (60 μL/well). A well to which only the growth medium not containing cells was dispensed (blank well) was provided as a blank group in each plate.
3) For the negative control group, DMSO diluted 20-fold with the differentiation-inducing medium was added at 3 μL/well (final DMSO concentration: 0.1% (v/v)) to the wells into which the cells were seeded.
(§3) After culturing for five days, the whole of the differentiation-inducing medium was removed from each well, and 60 μL of a 10% (v/v) formaldehyde solution (fixative solution) was added to each well. The cells were incubated at room temperature for 20 minutes. The whole of the fixative solution was removed and 60 μL of a 0.2% (v/v) Triton X-100 solution (Sigma) was dispensed to each well. The cells were incubated at room temperature for five minutes. The whole of the Triton X-100 solution was removed. A fat stain was prepared by dissolving Oil Red 0 (Sigma) in a 60% (v/v) isopropanol solution at 0.3% (w/v), and 60 μL of the fat stain was dispensed to each well. The cells were incubated at room temperature for 10 minutes. The whole of the fat stain was removed, and then 60 μL of a 60% (v/v) isopropanol solution was dispensed and removed. Thus, each well was washed twice. Thereafter, DMSO was added to each well at 100 μL per well, followed by stirring at room temperature for five minutes. […] The degree of adipocyte differentiation (%) of the test compound-added group was calculated assuming that the measured ABS550 of the positive control group was 100% and the measured ABS550 of the negative control group was 0.
N.D. denotes not calculable.

Rat white adipocytes [2] = test: Adipocyte differentiation promotion test (Test Example 4); format: cell-based; details: for EC50: 120 h
Experimental: as §1
as §2, with “(SUMITOMO BAKELITE Co., Ltd.)” for “(Becton, Dickinson and Company)”, “5,000” for “5,000 to 6,000”
Further, 1) for the test compound-added group, a 100 μM solution of the test compound in DMSO was diluted 20-fold with the differentiation-inducing medium; this was added at 3 μL/well (final test compound concentration: 100 nM, final DMSO concentration: 0.1% (v/v)) to the wells into which the cells were seeded. […] 3) For the negative control group, DMSO diluted 20-fold with the differentiation-inducing medium was added at 3 μL/well (final DMSO concentration: 0.1% (v/v)) to the wells into which the cells were seeded.
as §3

[3] = biological target: T1, GAL4-PPARγ chimeric receptor (Homo sapiens, UniProt P37231); test: Measurement of PPARγ activation effect/modulator activity, GAL4-PPARγ reporter assay in COS-7 cells (Test Example 5); format: cell-based; details: for Emax: COS-7
T1 construct: containing amino acids 175 to 475 of human PPARγ and a stop codon at the carboxy end; expressed in transfected cells; host or cells: COS-7 (monkey kidney) cells, transfected with pM-PPARγ and pFR-Luc
T1 sequence (P37231 with tags, fused parts or gaps): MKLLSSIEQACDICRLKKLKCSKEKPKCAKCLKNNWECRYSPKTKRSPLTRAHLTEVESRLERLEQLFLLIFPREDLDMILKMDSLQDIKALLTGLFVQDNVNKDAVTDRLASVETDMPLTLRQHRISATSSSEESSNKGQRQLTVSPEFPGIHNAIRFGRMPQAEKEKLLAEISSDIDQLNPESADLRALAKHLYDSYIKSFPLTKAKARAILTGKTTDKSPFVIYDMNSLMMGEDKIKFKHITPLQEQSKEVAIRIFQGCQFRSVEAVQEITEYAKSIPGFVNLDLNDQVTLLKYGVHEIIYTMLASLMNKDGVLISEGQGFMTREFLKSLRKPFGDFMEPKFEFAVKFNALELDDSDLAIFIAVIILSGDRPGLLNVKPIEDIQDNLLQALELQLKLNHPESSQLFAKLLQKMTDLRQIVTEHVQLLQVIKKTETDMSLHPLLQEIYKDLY
Experimental: The details will be shown below.
The plasmid is a gene that can express a GAL4-PPARγ chimeric receptor in mammalian cells.
The previously acquired plasmid pM-PPARγ and the plasmid pFR-Luc purchased from Stratagene Cloning Systems, Inc. were dissolved in deionised water at a concentration of 1 mg/mL each.
On the following day, the cells were harvested by trypsin treatment, suspended in phenol red-free Dulbecco's modified Eagle's medium containing […] 10% fetal bovine serum, seeded into a white 96-well plate (manufactured by Costar) using the medium in a volume of 95 μL per well, and cultured overnight.
The test compound was dissolved in dimethyl sulfoxide at a concentration of 30 mM. […] Dimethyl sulfoxide was prepared for the control group. Rosiglitazone dissolved in dimethyl sulfoxide at a concentration of 30 mM was prepared for the positive control group. They were diluted 150-fold with the medium, and 5 μL of the dilution was added to the wells in which the cells were grown. The concentrations of the test compound treating the cells ranged from 10 μM to 0.006 nM. After the addition, the cells were cultured overnight.
On the following day, the medium was removed, and Luc Lite (manufactured by PerkinElmer Inc.) was prepared according to the attached document and added at 50 microliters per well. The plates with cells in the Luc Lite was stirred for about 30 minutes. The amount of luminescence in each well was measured as luciferase activity using Analyst (Molecular Devices) for 0.5 second. A dose-dependent curve was drawn.

[4] = Adipocyte, rat white adipocytes, test compound alone, 5 days, Oil Red O ABS550, read-out: EC50
[5] = Rattus norvegicus, degree of adipocyte differentiation, positive control (Compound A 3.3 nM) 100%, negative control 0, read-out: Emax (%)
[6] = maximum luciferase activity, positive control (Rosiglitazone) 100%, control 0%, read-out: Emax (%)
[7] = COS-7 cells with pM-PPARγ and pFR-Luc, concentration represented by Emax/2, read-out: EC50

SMILES | IC50 (Rat white adipocytes [1]) [nM] | Imax (%) (Rat white adipocytes [1]) | EC50 (Rat white adipocytes [2]; [4]) [nM] | Emax (Rat white adipocytes [2]; [5]) [%] | Emax [3, 6] [%] | EC50 [3, 7] [pM] | melting point [°C] | Emax (Rat white adipocytes [2]; Rattus norvegicus, Adipocyte) [%] | EC50 (Rat white adipocytes [2]; Rattus norvegicus, Adipocyte) [nM] | EC50 [3] [pM] | Emax [3] [%]
Cc1cc(Oc2ccc3nc(COc4cccc(C(=O)O)c4)n(C)c3c2)cc(C)c1N.Cl.Cl [Example 2, 3-{[6-(4-Amino-3,5-dimethylphenoxy)-1-methyl-1H-benzimidazol-2-yl]methoxy}benzoic acid dihydrochloride] | 12 | −33 | 4.2 | 73 | 73.3 | 299000 | 235 to 239 |  |  |  | 
Cl.Cn1c(COc2cccc(C(=O)O)c2)nc2ccc(Oc3cccc(F)c3)cc21 [Example 8, 3-{[6-(3-Fluorophenoxy)-1-methyl-1H-benzimidazol-2-yl]methoxy}benzoic acid hydrochloride] | 53 | −29 | 7.4 | 75 | 91 | 4.74e+06 |  |  |  |  | 
Cl.Cn1c(COc2cccc(C(=O)O)c2)nc2ccc(Oc3ccc(Cl)c(F)c3)cc21 [Example 10, 3-{[6-(4-Chloro-3-fluorophenoxy)-1-methyl-1H-benzimidazol-2-yl]methoxy}benzoic acid hydrochloride] | 45 | −29 | 6.6 | 78 | 46.5 | 67000 |  |  |  |  | 
Cl.Cn1c(COc2cccc(C(=O)O)c2)nc2ccc(Oc3ccc(F)c(Cl)c3)cc21 [Example 12, 3-{[6-(3-Chloro-4-fluorophenoxy)-1-methyl-1H-benzimidazol-2-yl]methoxy}benzoic acid hydrochloride] |  |  | 5.2 | 82 | 60.2 | 39700 |  |  |  |  | 
Cl.Cn1c(COc2cccc(C(=O)O)c2)nc2ccc(Oc3ccccc3)cc21 [Example 14, 3-[(1-Methyl-6-phenoxy-1H-benzimidazol-2-yl)methoxy]benzoic acid hydrochloride] |  |  |  |  |  |  |  | 56 | 20 | 845000 | 89.6
Cl.Cl.Cn1c(COc2cccc(C(=O)O)c2)nc2ccc(Oc3ccccc3)nc21 [Example 16, 3-[(3-Methyl-5-phenoxy-3H-imidazo[4,5-b]pyridin-2-yl)methoxy]benzoic acid dihydrochloride] |  |  | 64 | 71 | 60.9 | 550000 |  |  |  |  | 
